{"source": "patent US5128376A", "about": "“Method for percutaneously administering physiologically active agents using an adjuvant a solvent and a diol moderator” (priority 1990, dated 1992)", "key": {"[1]": {"assay": "In vitro skin penetration study with rat skin diffusion cell technique (active agent flux, 8 hours)", "settings": "25 mg in 1 ml", "from_the_text": "Rat full thickness skins were used in the diffusion cell method of Michaels, AlChE Journal, 21 [5], 985-996, 1975. The rat skin was mounted in the diffusion cell in a vertical position between the upstream and the downstream compartments; the exposed area of the skin approximated 4.15 cm^2.\nThe skin was excised from the shaved abdominal site of male albino rats weighing 150~300 g, and washed with normal saline solution after the subcutaneous fat was carefully removed with scissors.\nThe active agent/PAEC solution of known concentration was added to the upper compartment of the cell, which was exposed to the epithelial side of the skin and a normal saline solution was placed in the lower compartment.\nThe penetration rate was studied in a thermostated bath at 30° C. […]\nThe flux of the active agent is given in the terms of μg/cm^2 /8 hours. 25 Volume percent component A with respect to component A and component B volume with or without diols and/or triols was used in the composition along with 2.5 weight percent of the active agent. For purposes of comparison, in one instance the result for an adjuvant alone with a diol and/or triol is given.\n1,2-propanediol was used as a diol moderator. […]\nIn the following Examples 6, 8, 9, 11 and 12, in vitro transdermal penetration was again analyzed followed the method of Michaels, AIChE Journal, 21, [5], pp. 985-996 (1975), according to the earlier described procedure. The sample volume was 1 ml unless otherwise indicated and flux of the active agent is given in μg/cm^2 /8 hours. Al percents are volume percents based on the total volume of the system unless otherwise indicated.\n25 mg of the NSAID, Indomethacin, Diclofenac sodium or Ibuprofen in 1 ml of various systems were used. […]"}, "[2]": {"assay": "in vivo", "settings": "rhesus monkey, topical or ocular", "description": "Male rhesus monkeys weighting 10-14 Kg can be used as the subject. An appropriate area of the monkey's chest is shaved 24 hours before drug application.\nDrug formulations comprising the PAEC are applied to a certain area of the chest. The monkey is restrained in a chair to prevent it from touching its chest.\nBlood samples are taken at appropriate intervals after the application. The heparinized blood is centrifuged, and the plasma removed and stored at -20° C. until analyzed.\nThis example show in vivo plasma metoclopramide.HCl levels with a topical gel formulation.\n200 mg of metoclopramide.HCl was dissolved in 4 ml of 10% C12 OH in a 1:1 volume mixture of MP/1,2-propanediol. To this solution was added 160 mg of Klucel (hydroxypropylcellulose type HF; Hercules Inc.) and the same stirred thoroughly to obtain a uniform gel. 1.0 ml of the gel was applied to 49 cm^2 of the chest area of the rhesus monkey; the applied area was left open to the air during the experiment.\nIn Examples 7 and 10, the in vivo Rhesus monkey test earlier described was followed except for modifying as described in Example 7.\n49 cm^2 of a polyester non-woven cloth (230 mg) impregnated with 1 ml of 25% C12 OH in a 2:1 volume mixture of MP/1,2-propanediol containing 200 mg of Indomethacin was applied to the upper back of a rhesus monkey; the applied area was occluded with Saran® film.\nThe plasma level of Indomethacine was analyzed by conventional HPLC.\nThe in vivo procedure of Example 7 was duplicated except for using propranolol as the active agent in place of the NSAID used, e.g., Indomethacin."}}, "note": "Where a name gives a salt, the structure may show the parent alone. Read-outs that look alike come from different tables or passages of the source."}
{"smiles": "COc1ccc2c(c1)c(CC(=O)O)c(C)n2C(=O)c1ccc(Cl)cc1", "note": "[Indomethacin]", "values": [{"measurement": "Relative Flux", "setting": "[1]; Indomethacin, 25% C12 OH in MP (reference)", "value": 1.0}, {"measurement": "Relative Flux", "setting": "[1]; Indomethacin, 25% C12 OH in a 2:1 volume mixture of MP/1,2-propanediol, relative to 25% C12 OH in MP", "value": 0.73}, {"measurement": "concentration at 1 h", "setting": "[2]; in vivo, 1 hour after application, 200 mg in 1 ml 25% C12 OH in 2:1 MP/1,2-propanediol, 49 cm^2 cloth, upper back, occluded, read-out: Indomethacin plasma level", "value": 619, "unit": "ng/mL"}, {"measurement": "concentration at 3 h", "setting": "[2]; in vivo, 3 hours after application, 200 mg in 1 ml 25% C12 OH in 2:1 MP/1,2-propanediol, 49 cm^2 cloth, upper back, occluded, read-out: Indomethacin plasma level", "value": 452, "unit": "ng/mL"}, {"measurement": "concentration at 5 h", "setting": "[2]; in vivo, 5 hours after application, 200 mg in 1 ml 25% C12 OH in 2:1 MP/1,2-propanediol, 49 cm^2 cloth, upper back, occluded, read-out: Indomethacin plasma level", "value": 388, "unit": "ng/mL"}, {"measurement": "concentration at 7 h", "setting": "[2]; in vivo, 7 hours after application, 200 mg in 1 ml 25% C12 OH in 2:1 MP/1,2-propanediol, 49 cm^2 cloth, upper back, occluded, read-out: Indomethacin plasma level", "value": 429, "unit": "ng/mL"}]}
{"smiles": "CCN(CC)CCNC(=O)c1cc(Cl)c(N)cc1OC", "note": "[metoclopramide.HCl]", "values": [{"measurement": "concentration at 1 h", "setting": "[2]; in vivo", "value": 75, "unit": "ng/mL"}, {"measurement": "concentration at 2 h", "setting": "[2]; in vivo", "value": 146, "unit": "ng/mL"}, {"measurement": "concentration at 3 h", "setting": "[2]; in vivo", "value": 178, "unit": "ng/mL"}, {"measurement": "concentration at 5 h", "setting": "[2]; in vivo", "value": 121, "unit": "ng/mL"}, {"measurement": "concentration at 7 h", "setting": "[2]; in vivo", "value": 93, "unit": "ng/mL"}]}
{"smiles": "CC(C)Cc1ccc(C(C)C(=O)O)cc1", "note": "(centres unmarked) [Ibuprofen]", "values": [{"measurement": "Relative Flux", "setting": "[1]; Ibuprofen, 25% C12 OH in N-methyl piperidone (reference)", "value": 1.0}, {"measurement": "Relative Flux", "setting": "[1]; Ibuprofen, 25% C12 OH in a 2:1 volume mixture of N-methyl piperidone/1,2-propanediol, relative to 25% C12 OH in N-methyl piperidone", "value": 0.48}]}
{"smiles": "CC(C)NCC(O)COc1cccc2ccccc12", "note": "(centres unmarked) [propranolol]", "values": [{"measurement": "concentration at 1 h", "setting": "[2]; plasma, 200 mg, 1 hour after application, procedure of Example 7 (25% C12 OH in 2:1 MP/1,2-propanediol, 49 cm^2, upper back, occluded), read-out: Propranolol plasma level", "value": 30, "unit": "ng/mL"}, {"measurement": "concentration at 3 h", "setting": "[2]; plasma, 200 mg, 3 hours after application, procedure of Example 7 (25% C12 OH in 2:1 MP/1,2-propanediol, 49 cm^2, upper back, occluded), read-out: Propranolol plasma level", "value": 115, "unit": "ng/mL"}, {"measurement": "concentration at 5 h", "setting": "[2]; plasma, 200 mg, 5 hours after application, procedure of Example 7 (25% C12 OH in 2:1 MP/1,2-propanediol, 49 cm^2, upper back, occluded), read-out: Propranolol plasma level", "value": 130, "unit": "ng/mL"}, {"measurement": "concentration at 7 h", "setting": "[2]; plasma, 200 mg, 7 hours after application, procedure of Example 7 (25% C12 OH in 2:1 MP/1,2-propanediol, 49 cm^2, upper back, occluded), read-out: Propranolol plasma level", "value": 90, "unit": "ng/mL"}]}
